The target of series [1] is T1, semisynthetic GltPh (Pyrococcus horikoshii, UniProt O59010, M385C).
T1 sequence (O59010 1-417 M385C limits assumed): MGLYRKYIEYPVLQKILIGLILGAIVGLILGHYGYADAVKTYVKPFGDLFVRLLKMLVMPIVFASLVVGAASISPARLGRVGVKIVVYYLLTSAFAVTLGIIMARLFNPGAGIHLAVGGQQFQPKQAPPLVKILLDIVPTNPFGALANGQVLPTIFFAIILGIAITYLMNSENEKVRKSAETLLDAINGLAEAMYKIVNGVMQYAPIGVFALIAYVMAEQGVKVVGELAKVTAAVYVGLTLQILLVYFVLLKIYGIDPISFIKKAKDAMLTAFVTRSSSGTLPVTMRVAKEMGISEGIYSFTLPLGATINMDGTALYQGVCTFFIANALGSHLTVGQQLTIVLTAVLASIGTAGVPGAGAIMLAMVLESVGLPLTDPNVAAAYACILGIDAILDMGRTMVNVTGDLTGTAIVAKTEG
Description: […]-Asp uptake into proteoliposomes. Type of series: biochemical. To be noted: read-out: % inhibition at 10 μM.

Series [2] addresses T2, GltPh (Pyrococcus horikoshii, UniProt O59010).
T2 sequence (O59010 1-417 limits assumed): T1 sequence (O59010 1-417 M385C limits assumed) with C385M
Kind of series: […]-Asp uptake into proteoliposomes. Format: biochemical. As to conditions: read-out: % inhibition at 10 μM.

Series [3] concerns the molecule itself. Description: cross-linking.

Data on two molecules can be found in PMC4511477 (Biochemistry, 2015).

Where a chain is given by its changes, count along the chain named. Names may count otherwise.

A word on the inhibition: it is the share of the control response that was lost under treatment. Turning to `NC(C(=O)O)C(OCc1ccccc1)C(=O)O` (racemic) [TBOA], the values for the inhibition at 10 µM in series [1] and in series [2] were 42 ± 4% and 31 ± 10%, respectively.

B1: semisynthetic GltPh transporter (wild type sequence, M385C at the ligation site) (natural protein, Pyrococcus horikoshii)
chain: MGLYRKYIEYPVLQKILIGLILGAIVGLILGHYGYADAVKTYVKPFGDLFVRLLKMLVMPIVFASLVVGAASISPARLGRVGVKIVVYYLLTSAFAVTLGIIMARLFNPGAGIHLAVGGQQFQPKQAPPLVKILLDIVPTNPFGALANGQVLPTIFFAIILGIAITYLMNSENEKVRKSAETLLDAINGLAEAMYKIVNGVMQYAPIGVFALIAYVMAEQGVKVVGELAKVTAAVYVGLTLQILLVYFVLLKIYGIDPISFIKKAKDAMLTAFVTRSSSGTLPVTMRVAKEMGISEGIYSFTLPLGATINMDGTALYQGVCTFFIANALGSHLTVGQQLTIVLTAVLASIGTAGVPGAGAIMLAMVLESVGLPLTDPNVAAAYACILGIDAILDMGRTMVNVTGDLTGTAIVAKTEGTGSG
A word on the stoichiometry N: it is a count of units in the complex or per binding partner. Take B1: in series [3], the “stoichiometry N” value is 3.
